This note sets out measurements from patent publication US11981750B2 (priority 2016, dated 2024).

Starred links: 1 amine or outer side, 2 acyl side, 3 side chain; linkers in the order of their positions; H or OH if unused. Non-standard residues stand in square brackets, D forms with d. Residues, ends and D or L forms follow the SMILES beside them. *: point of attachment. TtdDga = O=C(COCC(=O)[*:2])NCCCOCCOCCOCCCN[*:1]; Arachidoyl = CCCCCCCCCCCCCCCCCCCC(=O)*; NMeV = CN[CH](C(=O)O)C(C)C

Data set [1] deals with anti-Map antibodies in sera from bovine infected by Map. In words: Antibody ELISA with bovine sera (Map-infected versus healthy controls). Type of data set: binding. The following applies: for ROC analysis of ELISA antibody response, area under the curve: 60 MAP+ bovine sera and 53 control sera. (An ELISA detects its analyte on a solid surface through an enzyme-linked reagent.)

In data set [2] the test system is PBMCs isolated from control cows and cows naturally infected with Map. Description: Cytokine secretion by PBMCs after 24-hour stimulation with Map lipopeptides. The settings on record: 1, 5, 10 μg/ml. The class given is cell-based, cattle. On the procedure:
Peripheral blood mononuclear cells (PBMCs) were isolated from control non-infected (n=4) and cattle naturally infected with C-type Map (n=4) to determine if lipoproteins, L3P and L5P (structures disclosed in FIG. 9), can elicit immunological responses. Sixty ml of blood was collected via jugular venipuncture into a syringe containing 2× acid-citrate-dextrose to obtain PBMCs.
PBMCs were resuspended at a final concentration of 8×10^6/ml in complete medium consisting of RPMI-1640 with 2 mM 1-glutamine and 25 mM HEPES (Gibco, Grand Island, NY) and supplemented with 10% fetal calf serum (Gibco), 100λ penicillin-streptomycin (Gibco). Cells were plated in 24-well culture plates and incubated for 24 hr at 39° C. in 5% CO2 in a humidified atmosphere with the following treatment groups, nonstimulated (NS; negative control), pokeweed mitogen (PWM, 10 μg/ml, positive control; Sigma, St. Louis, MO), and four antigens that included whole cell sonicated extracts of Map strains K-10 and S397 (10 μg/ml); lipoproteins L3P and L5P (1, 5, 10 μg/ml concentrations). The lipoproteins had to be solubilized in 100% methanol to 1 mg/ml concentrations and then diluted in the complete medium to final concentrations indicated above. […] After a 24-hr stimulation, the supernatants were harvested by centrifugation at 400×g for 5 min. Supernatants were removed without disturbing the cells in culture and stored at −20° C. until cytokine measurement. Cytokines IFN-γ, IL-1, IL-2, IL-4, IL-6 and TNF-α were all measured using Ciraplex bovine multiplex cytokine arrays (Aushon Biosystems, Billerica, MA).

For data set [3], the system named is PBMCs isolated from cows naturally infected with Map. In words: Flow cytometry of CD25+ T and B cells after PBMC stimulation with lipopeptides. The class given is cell-based, cattle. In general terms: Flow cytometry measures light scatter and fluorescence of single cells or particles in a stream.
Data set [4] has as its system sera of animals infected by M. bovis. The class given is binding, bovine. The following applies: serial twofold dilution of sera.
Data set [5] is described as follows: physchem. The settings on record: organic solvents (DMSO, CHCl3, CH2Cl2, MeOH and EtOH).
Data set [6] has as its system sheep sera naturally or experimentally infected with S-type strains of Map. Description: Antibody ELISA with sheep sera infected with S-type strains of Map. Type of data set: binding. The settings on record: control n=15, positive n=39.
Setting [7] is: PBMCs from infected cows, lipopeptide 1, 5, 10 μg/ml.

On to `CCCCCCCCCCCCCCCCCCCC(=O)O` [lipid moiety, eicosanoic acid], for which the “ELISA antibody response against the lipid moiety of L5P, discrimination of control from infected animals” value in data set [1] (lipid solubilized in ethanol, bovine sera) is reported as “does not discriminate control from infected animals”.
As to `CCC(C)C(NC(=O)C(C(C)C)N(C)C(=O)C(N)Cc1ccccc1)C(=O)NC(Cc1ccccc1)C(=O)NC(C)C(=O)NCCCOCCOCCOCCCNC(=O)COCC(=O)O` (stereo not drawn) [L5P^H2O] (H-F[NMeV]IFA-TtdDga; configuration not given here), the figures for the “ROC analysis of ELISA antibody response, area under the curve” value in data set [1] (antigen in PBS) and in data set [1] (antigen in ethanol) were 0.9453 and 0.9313, respectively.
The term solubility denotes the dissolved amount per volume that the medium holds. A low value points to a poorly soluble substance. Turning to `CCCCCCCCCCCCCCCCCCCC(=O)N[C@H](Cc1ccccc1)C(=O)N(C)[C@H](C(=O)N[C@H](C(=O)N[C@@H](Cc1ccccc1)C(=O)N[C@@H](C)C(=O)OC)[C@@H](C)CC)C(C)C` [L5P] (Arachidoyl-[dF][NMeV]IFA-OMe), the “solubility in water or aqueous buffers” value is on record as “insoluble”. Moreover, the “effect of lipopeptide concentration on TNF-α secretion by PBMCs” value in data set [2] (P<0.0006) is “dose-dependent effect”. In addition, in data set [2] (24-hr stimulation), the IFN-γ cytokine response result is on record as “elicited cytokine responses”, the IL-1β cytokine response entry is reported as “elicited cytokine responses” and the TNF-α cytokine response entry is “elicited cytokine responses”. For the same compound, the “ROC analysis of ELISA antibody response, area under the curve” value in data set [1] (antigen in ethanol) came out at 0.97. Further, in data set [3] (setting [7]), the “CD25+ B cells response” value is given as “stronger response compared to L3P” and the “proliferation of CD25+ CD8 T cells” value is “remained static”. Moreover, the “CD25+ CD4 or CD25+ γδ T cell populations, difference between L3P and L5P” value in data set [3] (data not shown) is on record as “No significant differences”. In data set [4], the “cross-reaction with sera of animals infected by M. bovis” value is given as “does not cross-react”. In data set [5], the solubility is under 1000 µg/mL. The “immunodetection of L5P by sheep sera (anti-L5P antibodies)” value in data set [6] is reported as “less than half of the sheep sera do not appear to contain anti-L5P antibodies”.
